Read-outs that look alike come from different tables or passages of the source.

The term GI50 denotes the concentration at which growth is held to half of that of the control. Broadly, the ΔTm is the change in melting temperature against a reference sample. For orientation: EC50 means the concentration at which the effect is half-maximal. Higher therefore signals a less potent agent.

The target of series [1] is T1, BRD4 (Homo sapiens, UniProt O60885). The series is described as follows: Differential Scanning Fluorimetry (DSF), increased stability of BRD4 upon ligand binding. The settings on record: for BRD4 DSF (ΔTm): Table 3; for ΔTm at 4 µM: 100 μM protein, 4 μM compound and 2% DMSO. On the procedure: DSF=Differential Scanning Fluorimetry; provides a measure of the increased stability of BRD4 upon ligand binding The DSF experiment was run at 100 μM protein, 4 μM compound and 2% DMSO.
In general terms: In DSF a fluorescence change marks the thermal transition of the protein.

Series [2] relates to UKE1 cells. Put plainly: Growth inhibition of UKE1 cells. Type of series: cell-based.
In series [3] the test system is MM1.S cells. The series is described as follows: Antiproliferative activity in MM1.S cells (sensitive for BRD4 inhibition). The class given is cell-based. Conditions: Homo sapiens; for GI50 / IC50: MM1.S; for GI50: Table 3, read-out: GI50 (MM1S); for EC50: MM1.S cells (sensitive for BRD4 inhibition). On the procedure:
Cellular activity of promising compounds is assessed using MM.1S and MV4-11 AML cells using c-Myc levels as biomarker (6-12 hr treatment) and antiproliferative activity (48-72 hr treatment) as described (Ciceri et al., Dual kinase-bromodomain inhibitors for rationally designed polypharmacology. Nat Chem Biol 2014).

Series [4] deals with c-Myc. Conditions: MM.1S cells; background, literature; cited from earlier work.
Series [5] addresses JAK2 (Homo sapiens, UniProt O60674). The series is described as follows: JAK2 inhibition (IC50). Type of series: biochemical.
Series [6] deals with MV4-11 AML cells. The settings on record: background, literature; read-out: IC50, proliferation of MV4-11 AML cells; cited from earlier work.
The nature of series [7]: Mouse microsome. Type of series: in vitro ADME. Conditions: Table 1.
For series [8], the target named is T1, BRD4. The series is described as follows: BRD4 inhibition (IC50). The class given is binding. On the set-up: BRD4-1.
Where [9] appears, read: Table 1, read-out: GI50 (UKE1 cells).
Where [10] appears, read: Table 1, estimated, read-out: Estimated BRD4-1 IC50 (BRD4).
The mark [11] stands for this setting: Table 2, read-out: GI50 (UKE1 cells).

Sequence of JAK2 (O60674 whole entry): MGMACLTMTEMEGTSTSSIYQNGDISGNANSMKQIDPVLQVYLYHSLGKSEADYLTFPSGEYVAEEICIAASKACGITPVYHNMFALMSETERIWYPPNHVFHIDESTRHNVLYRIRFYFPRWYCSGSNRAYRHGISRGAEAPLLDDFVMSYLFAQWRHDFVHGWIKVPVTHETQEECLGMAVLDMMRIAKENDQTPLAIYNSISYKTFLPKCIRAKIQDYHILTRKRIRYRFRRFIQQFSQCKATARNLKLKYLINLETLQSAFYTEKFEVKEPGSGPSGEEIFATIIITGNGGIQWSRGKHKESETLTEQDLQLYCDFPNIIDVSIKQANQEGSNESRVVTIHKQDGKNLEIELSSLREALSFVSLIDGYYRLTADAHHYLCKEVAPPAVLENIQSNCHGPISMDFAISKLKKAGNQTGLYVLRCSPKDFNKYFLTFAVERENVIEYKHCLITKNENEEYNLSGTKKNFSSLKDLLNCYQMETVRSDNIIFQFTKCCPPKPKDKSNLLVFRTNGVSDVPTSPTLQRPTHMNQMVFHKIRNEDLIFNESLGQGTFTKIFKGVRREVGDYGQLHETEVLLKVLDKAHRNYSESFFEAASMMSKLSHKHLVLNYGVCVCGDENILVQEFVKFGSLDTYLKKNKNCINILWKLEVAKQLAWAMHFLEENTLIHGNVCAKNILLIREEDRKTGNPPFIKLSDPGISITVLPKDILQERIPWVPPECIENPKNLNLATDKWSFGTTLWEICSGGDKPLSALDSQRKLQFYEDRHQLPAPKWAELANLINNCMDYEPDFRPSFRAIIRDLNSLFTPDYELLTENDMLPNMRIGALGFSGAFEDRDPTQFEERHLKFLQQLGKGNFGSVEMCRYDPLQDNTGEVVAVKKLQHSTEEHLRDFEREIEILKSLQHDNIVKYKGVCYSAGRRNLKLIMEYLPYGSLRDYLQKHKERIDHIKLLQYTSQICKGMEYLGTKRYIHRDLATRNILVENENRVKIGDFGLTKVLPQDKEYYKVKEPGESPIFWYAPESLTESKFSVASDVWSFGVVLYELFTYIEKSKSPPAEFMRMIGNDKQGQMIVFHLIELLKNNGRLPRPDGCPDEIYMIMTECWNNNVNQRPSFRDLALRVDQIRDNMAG

Turning to `Cc1cnc(Nc2ccc(C3CCN(C)CC3)c(F)c2)nc1Nc1ccc2c(c1)C(S(=O)(=O)C(C)(C)C)CC2` (stereo not shown) [SR5-156, N^4-(3-(tert-Butylsulfonyl)-2,3-dihydro-1H-inden-5-yl)-N^2-(3-fluoro-4-(1-methylpiperidin-4-yl)phenyl)-5-methylpyrimidine-2,4-diamine], the “BRD4 DSF (ΔTm)” value in series [1] was 8.7 °C. For the same compound, the concentration for 50% growth inhibition (GI50) amounted to 1440 nM in series [2] (Table 3, read-out: GI50 (UKE1)) and 850 nM in series [3].

Turning to `Cc1cnc(Nc2ccc(C3CCN(C)CC3)cc2)cc1Nc1cccc(CS(=O)(=O)C(C)(C)C)c1` [SY3-032, N^4-(3-((tert-Butylsulfonyl)methyl)phenyl)-5-methyl-N^2-(4-(1-methylpiperidin-4-yl)phenyl)pyridine-2,4-diamine], in series [1], the “BRD4 DSF (ΔTm)” value is 2.5 °C.

For the compound `Cc1cnc(Nc2ccc(N3CCN(C)CC3)cc2)nc1Nc1cccc(S(=O)(=O)NC(C)(C)C)c1` [TG101209], the “downregulation of c-Myc” value in series [4] was “strong downregulation”.

In the case of `Cc1cnc(Nc2cc(F)c(C3CCN(C)CC3)c(F)c2)nc1Nc1ccc2c(c1)C(S(=O)(=O)C(C)(C)C)CC2` (stereo not shown) [SR5-157, N^4-(3-(tert-Butylsulfonyl)-2,3-dihydro-1H-inden-5-yl)-N^2-(3,5-difluoro-4-(1-methylpiperidin-4-yl)phenyl)-5-methylpyrimidine-2,4-diamine], the 50% growth inhibitory concentration (GI50) is 1500 nM in series [2] (Table 3, read-out: GI50 (UKE1)) and 700 nM in series [3].

Consider `Cc1cnc(Nc2ccc(C(=O)NC3CCN(C)CC3)c(F)c2)nc1Nc1cccc(CS(=O)(=O)C(C)(C)C)c1` [SR3-162, 4-((4-((3-((tert-Butylsulfonyl)methyl)phenyl)amino)-5-methylpyrimidin-2-yl)amino)-2-fluoro-N-(1-methylpiperidin-4-yl)benzamide], for which the ΔTm at 4 µM in series [1] (Table 1) was 6.9 °C. Moreover, the “BRD4 DSF (ΔTm)” value in series [1] came to 6.9 °C. In addition, the IC50 in series [5] (Table 3, read-out: JAK2 (IC50)) amounted to 2.2 nM; in series [3] (Table 1) it was 130 nM. The 50% growth inhibitory concentration (GI50) in series [3] came to 130 nM.

As for `Cc1cnc(Nc2cc(F)c(C3CCN(C)CC3)cn2)nc1Nc1ccc2c(c1)C(S(=O)(=O)C(C)(C)C)CC2` (stereo not shown) [SR5-158, N^4-(3-(tert-Butylsulfonyl)-2,3-dihydro-1H-inden-5-yl)-N^2-(4-fluoro-5-(1-methylpiperidin-4-yl)pyridin-2-yl)-5-methylpyrimidine-2,4-diamine], in series [1], the “BRD4 DSF (ΔTm)” value was determined as 7.0 °C. The GI50 turned out to be 3640 nM in series [2] (Table 3, read-out: GI50 (UKE1)) and 2300 nM in series [3].

`Cc1cnc(Nc2ccc(C3CCN(C)CC3)c(F)c2)cc1Nc1cccc(CS(=O)(=O)C(C)(C)C)c1` [SY3-036, N^4-(3-((tert-Butylsulfonyl)methyl)phenyl)-N^2-(3-fluoro-4-(1-methylpiperidin-4-yl)phenyl)-5-methylpyridine-2,4-diamine]: the “BRD4 DSF (ΔTm)” value in series [1] was found to be 2.9 °C.

Consider `Cc1cnc(Nc2ccc(OCCN3CCCC3)cc2)nc1Nc1cccc(S(=O)(=O)NC(C)(C)C)c1` [TG101348], for which the “downregulation of c-Myc” value in series [4] is given as “strong downregulation”. For the same compound, the IC50 in series [6] is 79 nM.

As for `Cc1cnc(Nc2ccc(C3CCN(C)CC3)c(F)c2)nc1Nc1cccc(CS(=O)(=O)C(C)(C)C)c1` [SR3-167, N^4-(3-((tert-Butylsulfonyl)methyl)phenyl)-N^2-(3-fluoro-4-(1-methylpiperidin-4-yl)phenyl)-5-methylpyrimidine-2,4-diamine], the ΔTm at 4 µM in series [1] (Table 1) came out at 9.2 °C. The “BRD4 DSF (ΔTm)” value in series [1] amounted to 9.2 °C. Further, the IC50 in series [5] (Table 1, unit given as nm, read-out: IC50 (JAK2)) was 0.87 nM; in series [5] (Table 3, read-out: JAK2 (IC50)), 1 nM; in series [3] (Table 1), 140 nM; in series [8] (setting [10]), 704 nM; in series [8] (Table 3, read-out: BRD4 (IC50)), 700 nM. The concentration for 50% growth inhibition (GI50) came out at 210 nM in series [2] (setting [9]); 210 nM in series [2] (Table 3, read-out: GI50 (UKE1)); 140 nM in series [3]. The same compound yielded a Mouse microsome in series [7] of 28%.

Regarding `Cc1cnc(Nc2ccc(N3CCN(C)CC3)c(F)c2)nc1Nc1cccc(CS(=O)(=O)C(C)(C)C)c1` [SR3-159, N^4-(3-((tert-Butylsulfonyl)methyl)phenyl)-N^2-(3-fluoro-4-(4-methylpiperazin-1-yl)phenyl)-5-methylpyrimidine-2,4-diamine], the shift in melting temperature (ΔTm) at 4 µM in series [1] (Table 1) came to 8.4 °C. Besides, the “BRD4 DSF (ΔTm)” value in series [1] stood at 8.4 °C. The IC50 in series [5] (Table 1, read-out: IC50 (JAK2)) is 9 nM; in series [5] (Table 3, read-out: JAK2 (IC50)), 8 nM; in series [8] (setting [10]), 5610 nM; in series [8] (Table 3, read-out: BRD4 (IC50)), 5600 nM. Also, the GI50 in series [2] (setting [9]) came to 440 nM; in series [2] (Table 3, read-out: GI50 (UKE1)) it was 440 nM; in series [3] it was 710 nM. In series [3] (Table 1), this compound yielded a concentration giving a half-maximal response (EC50) of 710 nM.

`Cc1cnc(Nc2cc(F)c(N3CCN(C)CC3)c(F)c2)cc1Nc1ccc(Cl)c(NS(=O)(=O)C(C)(C)C)c1`: the ΔTm at 4 µM in series [1] (Table 2) worked out at 6.6 °C. Moreover, the GI50 in series [2] (setting [11]) is 5700 nM. The same compound came in with an EC50 in series [3] (Table 2) of 2830 nM.

With `CC[C@@H]1C(=O)N(C)c2cnc(Nc3ccc(C(=O)NC4CCN(C)CC4)cc3OC)nc2N1C1CCCC1` [BI2536], the “downregulation of c-Myc” value in series [4] is recorded as “strong downregulation”.

Consider `Cc1cnc(Nc2ccc(N3CCN(C)CC3)c(F)c2)cc1Nc1ccc(Cl)c(NS(=O)(=O)C(C)(C)C)c1`, for which the ΔTm at 4 µM in series [1] (Table 2) was 6.9 °C. The 50% growth inhibitory concentration (GI50) in series [2] (setting [11]) was 4500 nM. In addition, in series [3] (Table 2), the EC50 is 3120 nM.

As for `Cc1cnc(Nc2ccc(C3CCN(C)CC3)c(F)c2)nc1Nc1ccc(Cl)c(CS(=O)(=O)C(C)(C)C)c1` [SR3-169, N^4-(3-((tert-Butylsulfonyl)methyl)-4-chlorophenyl)-N^2-(3-fluoro-4-(1-methylpiperidin-4-yl)phenyl)-5-methylpyrimidine-2,4-diamine], the shift in melting temperature (ΔTm) at 4 µM in series [1] (Table 1) turned out to be 9.8 °C. The “BRD4 DSF (ΔTm)” value in series [1] turned out to be 9.8 °C. In addition, the IC50 in series [5] (Table 3, read-out: JAK2 (IC50)) was 4.2 nM; in series [3] (Table 1), 320 nM; in series [8] (Table 3, read-out: BRD4 (IC50)) it was 700 nM. Moreover, the 50% growth inhibitory concentration (GI50) in series [2] (setting [9]) is 400 nM; in series [2] (Table 3, read-out: GI50 (UKE1)) it was 400 nM; in series [3], 320 nM. In series [7], this compound gave a Mouse microsome of 22%.
